Source: patent US20230146455A1, “TREATMENT OF INFLAMMATORY DISEASES WITH PEPTIDES AND PHARMACEUTICAL COMPOSITIONS” (Yuyu Pharma, Inc., priority 2020, published 2023)
“And” between values parts separate entries of the source, which are not always exact repeats. Identical values can stand only once. Where a SMILES comes first, the peptide text is derived from it. [ ]: non-standard residue; d: D form. Hyp = O=C(O)[C@@H]1C[C@@H](O)CN1

Tested on: MMP-9
Test: Example 8 main study Luminex, LPS hPBMCs: MMP-9
Type: cell-based, human
Description: Human PBMCs were pretreated with YY-101, YDE-011, YDE-043 or reference compound; Xiidra® at various concentration (ranging from […] to 500 nM) for 2 h before stimulation. An equal volume of 0.5% DMSO was used as a vehicle control. Then, the cells were treated with LPS at 5 ug/ml, which was selected based on the pilot study. The supernatants from treated cells were harvested at 24 h and placed in a 96 well for Luminex cytokine & chemokine profiling using a Luminex 200 multiplex assay (Luminex; R&D system, USA).
The main study arm with triplicate wells per group in a 24-well plate: • 1. Blank • 2. PBMC: 0.5% DMSO • 3. PBMC+LPS (5 ug/ml) • 4. PBMC+YY-101 500 nM • 5. PBMC+YY-101 50 nM • 6. PBMC+YY-101 5 nM • 7. PBMC+YY-101 0.5 nM • 8. PBMC+LPS (5 ug/ml)+Xiidra® 500 nM • 9. PBMC+LPS (5 ug/ml)+Xiidra® 50 nM • 10. PBMC+LPS (5 ug/ml)+Xiidra® 5 nM • 11. PBMC+LPS (5 ug/ml)+Xiidra® 0.5 nM • 12. PBMC+LPS (5 ug/ml)+Xiidra® 0.05 nM • 13. PBMC+LPS (5 ug/ml)+Xiidra® 0.005 nM • 14. PBMC+LPS (5 ug/ml)+YY-101 500 nM • 15. PBMC+LPS (5 ug/ml)+YY-101 50 nM • 16. PBMC+LPS (5 ug/ml)+YY-101 5 nM • 17. PBMC+LPS (5 ug/ml)+YY-101 0.5 nM • 18. PBMC+LPS (5 ug/ml)+YY-101 0.05 nM • 19. PBMC+LPS (5 ug/ml)+YY-101 0.005 nM • 20. PBMC+LPS (5 ug/ml)+YDE-011 500 nM • 21. PBMC+LPS (5 ug/ml)+YDE-011 50 nM • 22. PBMC+LPS (5 ug/ml)+YDE-011 5 nM • 23. PBMC+LPS (5 ug/ml)+YDE-011 0.5 nM • 24. PBMC+LPS (5 ug/ml)+YDE-011 0.05 nM • 25. PBMC+LPS (5 ug/ml)+YDE-011 0.005 nM • 26. PBMC+LPS (5 ug/ml)+YDE-043 500 nM • 27. PBMC+LPS (5 ug/ml)+YDE-043 50 nM • 28. PBMC+LPS (5 ug/ml)+YDE-043 5 nM • 29. PBMC+LPS (5 ug/ml)+YDE-043 0.5 nM • 30. PBMC+LPS (5 ug/ml)+YDE-043 0.05 nM • 31. PBMC+LPS (5 ug/ml)+YDE-043 0.005 nM
Multiplex assay was used to measure 30 cytokines and chemokines. The 1:200 diluted cell supernatant and serial dilution of the standard were dispensed into a 96 well plate at 50 ul/well. Then, the pre-mixed cocktail of antibody-coated magnetic beads was dispensed at 50 ul/well and incubated at room temperature for 2 h in a horizontal orbital microplate shaker at 800±500 rpm. The beads were washed using a magnetic device to prevent loss. The biotin-antibody was dispensed in 50 ul of each well and incubated at room temperature for 1 h in a shaker at 800±500 rpm. After washing, streptavidin-PE was added at 50 ul/well and incubated at room temperature for 30 min in a shaker under the same conditions. Finally, after washing, wash buffer (100 ul/well) was added to the plate and incubated in a shaker for 2 min. The Luminex™ 200 setting were set according to the manufacturer's protocol. The data was calculated with a standard five-parameter logistic nonlinear regression analysis of the data (xPonent software 4.2, USA). Results were presented as concentration (ng/ml or pg/ml).

[1] = PBMC + LPS(5 ug/ml), test article 0.005 nM, Mean
[2] = PBMC + LPS(5 ug/ml), test article 0.005 nM, single replicates
[3] = PBMC + LPS(5 ug/ml), test article 0.05 nM, Mean
[4] = PBMC + LPS(5 ug/ml), test article 0.05 nM, single replicates
[5] = PBMC + LPS(5 ug/ml), test article 0.5 nM, Mean
[6] = PBMC + LPS(5 ug/ml), test article 0.5 nM, single replicates
[7] = PBMC + LPS(5 ug/ml), test article 5 nM, Mean
[8] = PBMC + LPS(5 ug/ml), test article 5 nM, single replicates
[9] = PBMC + LPS(5 ug/ml), test article 50 nM, Mean
[10] = PBMC + LPS(5 ug/ml), test article 50 nM, single replicates
[11] = PBMC + LPS(5 ug/ml), test article 500 nM, Mean
[12] = PBMC + LPS(5 ug/ml), test article 500 nM, single replicates
[13] = PBMC without LPS, test article 0.5 nM, Mean
[14] = PBMC without LPS, test article 0.5 nM, single replicates (1st, 2nd)
[15] = PBMC without LPS, test article 5 nM, Mean
[16] = PBMC without LPS, test article 5 nM, single replicates (1st, 2nd)
[17] = PBMC without LPS, test article 0.05 uM, Mean
[18] = PBMC without LPS, test article 0.05 uM, single replicates (1st, 2nd)
[19] = PBMC without LPS, test article 50 nM, Mean
[20] = PBMC without LPS, test article 50 nM, single replicates (1st, 2nd)
[21] = PBMC without LPS, test article 500 nM, Mean

CC(C)C[C@H](NC(=O)CNC(=O)[C@H](CC(=O)O)NC(=O)[C@H](CCC(N)=O)NC(=O)CNC(=O)[C@@H]1C[C@@H](O)CN1)C(=O)N[C@@H](C)C(=O)NCC(=O)N1CCC[C@H]1C(=O)N[C@@H](CCCCN)C(=O)O [YY-101] (H-[Hyp]GQDGLAGPK-OH; N-terminus and C-terminus assumed)
Concentration (pg/ml), MMP-9 [1]: 4617.5 pg/mL | MFI (Bead name: MMP-9) [1]: 31.0 | Concentration (pg/ml), MMP-9 [2]: 3688.0 pg/mL and 4925.2 pg/mL and 5239.4 pg/mL | MFI (Bead name: MMP-9) [2]: 28.0 and 32.0 and 33.0 | Concentration (pg/ml), MMP-9 [3]: 4977.8 pg/mL | MFI (Bead name: MMP-9) [3]: 32.2 | Concentration (pg/ml), MMP-9 [4]: 5239.4 pg/mL and 4925.2 pg/mL and 4768.8 pg/mL | MFI (Bead name: MMP-9) [4]: 33.0 and 32.0 and 31.5 | Concentration (pg/ml), MMP-9 [5]: 5239.4 pg/mL | MFI (Bead name: MMP-9) [5]: 33.0 | Concentration (pg/ml), MMP-9 [6]: 5239.4 pg/mL | MFI (Bead name: MMP-9) [6]: 33.0 | Concentration (pg/ml), MMP-9 [7]: 5138.2 pg/mL | MFI (Bead name: MMP-9) [7]: 32.7 | Concentration (pg/ml), MMP-9 [8]: 5239.4 pg/mL and 4302.5 pg/mL and 5872.9 pg/mL | MFI (Bead name: MMP-9) [8]: 33.0 and 30.0 and 35.0 | Concentration (pg/ml), MMP-9 [9]: 5239.9 pg/mL | MFI (Bead name: MMP-9) [9]: 33.0 | Concentration (pg/ml), MMP-9 [10]: 5239.4 pg/mL and 4925.2 pg/mL and 5555.3 pg/mL | MFI (Bead name: MMP-9) [10]: 33.0 and 32.0 and 34.0 | Concentration (pg/ml), MMP-9 [11]: 5135.8 pg/mL | MFI (Bead name: MMP-9) [11]: 32.7 | Concentration (pg/ml), MMP-9 [12]: 4612.9 pg/mL and 5239.4 pg/mL and 5555.3 pg/mL | MFI (Bead name: MMP-9) [12]: 31.0 and 33.0 and 34.0 | Concentration (pg/ml), MMP-9 [13]: 16511.2 pg/mL | MFI (Bead name: MMP-9) [13]: 66.5 | Concentration (pg/ml), MMP-9 [14]: 12836.1 pg/mL and 20186.4 pg/mL | MFI (Bead name: MMP-9) [14]: 56.0 and 77.0 | Concentration (pg/ml), MMP-9 [15]: 14148.8 pg/mL | MFI (Bead name: MMP-9) [15]: 59.8 | Concentration (pg/ml), MMP-9 [16]: 16823.6 pg/mL and 11474.0 pg/mL | MFI (Bead name: MMP-9) [16]: 67.5 and 52.0 | Concentration (pg/ml), MMP-9 [17]: 17040.0 pg/mL | MFI (Bead name: MMP-9) [17]: 68.0 | Concentration (pg/ml), MMP-9 [18]: 20901.3 pg/mL and 13178.7 pg/mL | MFI (Bead name: MMP-9) [18]: 79.0 and 57.0 | Concentration (pg/ml), MMP-9 [19]: 10636.2 pg/mL | MFI (Bead name: MMP-9) [19]: 49.5 | Concentration (pg/ml), MMP-9 [20]: 11813.2 pg/mL and 9459.2 pg/mL | MFI (Bead name: MMP-9) [20]: 53.0 and 46.0 | Concentration (pg/ml), MMP-9 [21]: 11140.0 pg/mL | MFI (Bead name: MMP-9) [21]: 51.0
